Source: patent US10221171B2, “Oxathiazole thiazolium Hsp 70 inhibitors” (THE REGENTS OF THE UNIVERSITY OF CALIFORNIA, priority 2015, dated 2019)
Like-named read-outs stand apart in the source and are kept apart here.

What was measured:
Assay type in all cases: cell-based
[1] = tested on: MDA-MB-231; assay: MTT cell viability assay, MDA-MB-231; conditions: Homo sapiens
Description: (§1) Cells were then treated with compound at various concentrations in 0.2 mL media. After the 72-hour incubation period, cells were washed in PBS (3×100 μL), and 10 μL MTT reagent was added with 100 μL fresh media. Cells were then incubated for 4 hr in a humidified chamber at 37° C. with 5% CO2. Insoluble formazan crystals were solubilized by addition of 0.1 mL detergent solution (4 hr at room temp., dark). Resulting colored solutions were then quantified at an absorbance of 570 nm.

[2] = tested on: MEF (C57BL/6); assay: MTT cell viability assay, MEF (C57BL/6); conditions: Mus musculus
Description: as §1

[3] = tested on: MCF-7; assay: MTT cell viability assay, MCF-7; conditions: Homo sapiens, read-out: IC50/μM MCF-7
Description: as §1

[4] = MTT, 72-hour incubation, read-out: IC50/μM MEF (C57BL/6)
[5] = MDA-MB-231, 72 h, 72-hour incubation
[6] = MCF7, 72 h, MTT, 72-hour incubation
[7] = 72 h, read-out: IC50/μM MEF (C57BL/6), MTT, 72-hour incubation

SMILES	IC50 ([1]; MDA-MB-231, 72-hour incubation) [µM]	IC50 [2, 4] [µM]	IC50 ([3]; MCF7, MTT, 72-hour incubation) [µM]	IC50 [1, 5] [µM]	IC50 [3, 6] [µM]	IC50 [2, 7] [µM]	IC50 ([3]; MCF7, 72 h) [µM]
CCn1c(=O)/c(=C2\Sc3cc(C(C)C)ccc3N2C)s/c1=C\c1scc[n+]1Cc1ccccc1C(F)(F)F [JG-326]	0.06 ± 0.007	0.45 ± 0.04	0.069 ± 0.005				
CCn1c(=O)/c(=C2\Sc3cc(SC)ccc3N2C)s/c1=C\c1scc[n+]1Cc1ccccc1C [JG-310]	0.11 ± 0.01	2.2 ± 0.2	0.23 ± 0.04				
CCn1c(=O)/c(=C2\Sc3cc(C)ccc3N2C)s/c1=C\c1scc[n+]1Cc1ccccc1Cl [JG-283]	0.088 ± 0.005	0.45 ± 0.02	0.063 ± 0.007				
CCn1c(=O)/c(=C2\Sc3cc(Cl)ccc3N2C)s/c1=C\c1scc[n+]1[C@H](C)c1ccccc1 [JG-339]	0.19 ± 0.02	1.5 ± 0.08	0.37 ± 0.04				
CCn1c(=O)/c(=C2\Sc3cc(OC)ccc3N2C)s/c1=C\c1scc[n+]1Cc1ccccc1 [JG-250]		2 ± 0.1		0.16 ± 0.01	0.13 ± 0.01		
CCn1c(=O)/c(=C2\Sc3cc(SC)ccc3N2C)s/c1=C\c1scc[n+]1Cc1ccsc1C(=O)OC [JG-313]	0.16 ± 0.02	1.4 ± 0.1	0.2 ± 0.01				
CCn1c(=O)/c(=C2\Sc3cc(C)ccc3N2C)s/c1=C\c1scc[n+]1Cc1ccsc1C(=O)OC [JG-248]	0.11 ± 0.01	1.2 ± 0.2	0.14 ± 0.01				
CCn1c(=O)/c(=C2\Sc3cc(Cl)ccc3N2C)s/c1=C\c1scc[n+]1Cc1ccccc1C(=O)O [JG-316]	> 20	> 10	> 20				
CCn1c(=O)/c(=C2\Sc3cc(F)ccc3N2C)s/c1=C\c1scc[n+]1Cc1occc1C(=O)OC [JG-266]	0.3 ± 0.02	2.7 ± 0.2	0.87 ± 0.11				
CCn1c(=O)/c(=C2\Sc3cc(OC)ccc3N2C)s/c1=C\c1scc[n+]1CCc1cccc(Cl)c1 [JG-394]	0.24 ± 0.01	2.3 ± 0.1	0.56 ± 0.06				
CCn1c(=O)/c(=C2\Sc3cc(OC)ccc3N2C)s/c1=C\c1scc[n+]1CCc1cccc(C(F)(F)F)c1 [JG-393]	0.21 ± 0.01	2.1 ± 0.1	0.68 ± 0.13				
CCn1c(=O)/c(=C2\Sc3cc(Br)ccc3N2C)s/c1=C\c1scc[n+]1Cc1ccccc1C [JG-290]	0.21 ± 0.02	1.7 ± 0.1	0.16 ± 0.01				
CCn1c(=O)/c(=C2\Sc3ccc(C)cc3N2C)s/c1=C\c1scc[n+]1Cc1ccccc1OC(F)(F)F [JG-368]				0.18 ± 0.01	0.089 ± 0.006	1.4 ± 0.1	
CCn1c(=O)/c(=C2\Sc3cc(C)ccc3N2C)s/c1=C\c1scc[n+]1Cc1ccccc1C(=O)OC [JG-374]	0.15 ± 0.01	0.69 ± 0.03	0.16 ± 0.01				
CCn1c(=O)/c(=C2\Sc3cc(C)ccc3N2C)s/c1=C\c1scc[n+]1Cc1ccccc1C(F)(F)F [JG-285]	0.062 ± 0.01	0.66 ± 0.06	0.078 ± 0.003				
CCn1c(=O)/c(=C2\Sc3cc(Cl)ccc3N2C)s/c1=C\c1scc[n+]1Cc1cnc(Cl)s1 [JG-259]			> 5	2.3 ± 0.3		8.9 ± 0.8	
CCn1c(=O)/c(=C2\Sc3cc(OC)ccc3N2C)s/c1=C\c1scc[n+]1Cc1cc(C)sc1C [JG-353]	0.15 ± 0.01	1.1 ± 0.1	0.15 ± 0.01				
CCn1c(=O)/c(=C2\Sc3ccc(C)cc3N2C)s/c1=C\c1scc[n+]1Cc1c(C)cccc1C [JG-362]	0.23 ± 0.01	2.3 ± 0.1	0.19 ± 0.02				
CCn1c(=O)/c(=C2\Sc3cc(F)ccc3N2C)s/c1=C\c1scc[n+]1Cc1csc(NC(C)=O)n1 [JG-262]	> 20	> 10	> 5				
CCn1c(=O)/c(=C2\Sc3cc(OC)ccc3N2C)s/c1=C\c1scc[n+]1Cc1ccccc1OC(F)(F)F [JG-303]		0.7 ± 0.01		0.053 ± 0.005			0.07 ± 0.003

SMILES	IC50 ([1]; MDA-MB-231, 72-hour incubation) [µM]	IC50 [2, 4] [µM]	IC50 ([3]; MCF7, MTT, 72-hour incubation) [µM]	IC50 [1, 5] [µM]	IC50 [3, 6] [µM]	IC50 [2, 7] [µM]	IC50 ([3]; MCF7, 72 h) [µM]
CCn1c(=O)/c(=C2\Sc3ccc(OC)cc3N2C)s/c1=C\c1scc[n+]1Cc1ccccc1OC(F)(F)F [JG-400]				0.16 ± 0.01	0.16 ± 0.02	2.2 ± 0.1	
CCn1c(=O)/c(=C2\Sc3cc(SC)ccc3N2C)s/c1=C\c1scc[n+]1Cc1ccccc1OC [JG-358]	0.11 ± 0.01	1.6 ± 0.1	0.22 ± 0.01				
CCn1c(=O)/c(=C2\Sc3cc(C)ccc3N2C)s/c1=C\c1scc[n+]1CCc1cccc(C(F)(F)F)c1 [JG-384]	0.68 ± 0.1	1.1 ± 0.1	0.62 ± 0.08				
CCn1c(=O)/c(=C2\Sc3cc(F)ccc3N2C)s/c1=C\c1scc[n+]1Cc1c(Cl)cccc1Cl [JG-338]	0.14 ± 0.01	1 ± 0.03	0.17 ± 0.02				
CCn1c(=O)/c(=C2\Sc3ccc(OC)cc3N2C)s/c1=C\c1scc[n+]1Cc1ccccc1 [JG-376]		1 ± 0.1		0.36 ± 0.05	0.37 ± 0.02		
CCn1c(=O)/c(=C2\Sc3cc(Br)ccc3N2C)s/c1=C\c1scc[n+]1Cc1ccsc1C(=O)OC [JG-293]	0.14 ± 0.03	3.1 ± 0.3	0.3 ± 0.03				
CCn1c(=O)/c(=C2\Sc3cc(SC)ccc3N2C)s/c1=C\c1scc[n+]1C(C)c1ccccc1 (stereo not drawn) [JG-321]	0.14 ± 0.01	1.8 ± 0.1	0.23 ± 0.03				
CCc1ccc2c(c1)S/C(=c1/s/c(=C\c3scc[n+]3Cc3ccccc3C)n(CC)c1=O)N2C [JG-296]	0.14 ± 0.01	0.61 ± 0.02	0.1 ± 0.01				
CCn1c(=O)/c(=C2\Sc3cc(Cl)ccc3N2C)s/c1=C\c1scc[n+]1Cc1ccc(Cl)cc1 [JG-255]				0.41 ± 0.06	1.45 ± 0.13	3.1 ± 0.3	
CN1/C(=c2\s/c(=C\c3scc[n+]3Cc3ccccc3)n(C)c2=O)Sc2cc(Cl)ccc21 [JG-281]	0.16 ± 0.02	5.7 ± 0.3	0.6 ± 0.06				
CCn1c(=O)/c(=C2\Sc3cc(F)ccc3N2C)s/c1=C\c1scc[n+]1Cc1cnc(Cl)s1 [JG-260]	6.7 ± 0.5	8.2 ± 0.4	> 5				
CCc1ccc2c(c1)S/C(=c1/s/c(=C\c3scc[n+]3Cc3c(C)cccc3C)n(CC)c1=O)N2C [JG-343]	0.25 ± 0.01	0.64 ± 0.01	0.22 ± 0.02				
CCn1c(=O)/c(=C2\Sc3cc(Cl)ccc3N2C)s/c1=C\c1scc[n+]1Cc1c(Cl)cccc1Cl [JG-337]				0.16 ± 0.01	0.16 ± 0.01	1.4 ± 0.1	
CCn1c(=O)/c(=C2\Sc3cc(OC)ccc3N2C)s/c1=C\c1scc[n+]1CCc1ccccc1Cl [JG-379]	0.2 ± 0.03	0.9 ± 0.01	0.18 ± 0.01				
CCn1c(=O)/c(=C2\Sc3cc(C)ccc3N2C)s/c1=C\c1scc[n+]1CCc1ccccc1C [JG-392]	0.19 ± 0.02	1.2 ± 0.1	0.35 ± 0.03				
CCn1c(=O)/c(=C2\Sc3cc(F)ccc3N2C)s/c1=C\c1scc[n+]1Cc1ccccc1OC [JG-264]	0.24 ± 0.03	1.4 ± 0.1	0.49 ± 0.04				
CCc1ccc2c(c1)S/C(=c1/s/c(=C\c3scc[n+]3C(C)c3ccccc3)n(CC)c1=O)N2C (stereo not drawn) [JG-320]	0.3 ± 0.05	1.3 ± 0.04	0.1 ± 0.01				
CCn1c(=O)/c(=C2\Sc3cc(F)ccc3N2C)s/c1=C\c1scc[n+]1Cc1ccccc1C(=O)OC [JG-332]	0.26 ± 0.03	2 ± 0.1	0.22 ± 0.03				
CCn1c(=O)/c(=C2\Sc3cc(C(C)C)ccc3N2C)s/c1=C\c1scc[n+]1C(C)c1ccccc1 (stereo not drawn) [JG-319]	0.26 ± 0.03	1.7 ± 0.04	0.13 ± 0.01				
CCn1c(=O)/c(=C2\SCCN2C)s/c1=C\c1ccccn1 [JG-273]	> 20	> 10	> 5				
